Measurements from patent publication US4172138A, “Method and composition of matter for the treatment of dry cows for mastitis” (priority 1977, dated 1979).
Converted amounts (≈) assume the structure as drawn.

Key:
[1] = cited from earlier work
[2] = residual penicillin G in the udder of a treated dry cow over 30 days; type: in vivo; conditions: for Residual Benzathine Penicillin G In The Udder: 500,000 units of the composition of Example 1; for Residual Procaine Penicillin G In The Udder: dosage of 500,000 u
[3] = high concentration product, e.g. 1,000,000 units procaine penicillin G and 1,000 milligrams dihydrostreptomycin; in some cases; cited from earlier work

| Structure (SMILES) | solubility in water ([1]; water) [µg/mL] | Residual Benzathine Penicillin G In The Udder ([2]; day 8 past treatment) [u/ml.] | Residual Benzathine Penicillin G In The Udder ([2]; day 10 past treatment) [u/ml.] | Residual Benzathine Penicillin G In The Udder ([2]; day 12 past treatment) [u/ml.] | Residual Benzathine Penicillin G In The Udder ([2]; day 16 past treatment) [u/ml.] | Residual Benzathine Penicillin G In The Udder ([2]; day 23 past treatment) [u/ml.] | Residual Benzathine Penicillin G In The Udder ([2]; day 30 past treatment) [u/ml.] | amount remaining for effectively treating mastitis, compared with procaine penicillin ([2]; over the extended 30 day treatment) | solubility (in words) ([1]; compared with limited solubility penicillin) | dissipation of procaine penicillin ([2]; after the 8th day) | initial amount of procaine penicillin remaining, compared with benzathine penicillin G ([2]; at the 8th day) | amount of procaine penicillin remaining relative to remaining benzathine penicillin G ([2]; by the tenth day) | Residual Procaine Penicillin G In The Udder ([2]; day 8 past treatment) [u/ml.] | Residual Procaine Penicillin G In The Udder ([2]; day 10 past treatment) [u/ml.] | Residual Procaine Penicillin G In The Udder ([2]; day 12 past treatment) | Residual Procaine Penicillin G In The Udder ([2]; day 16 past treatment, not detectable) | Residual Procaine Penicillin G In The Udder ([2]; day 23 past treatment, not detectable) | Residual Procaine Penicillin G In The Udder ([2]; day 30 past treatment, not detectable) | desired residual effects remain in the udder of a treated cow [3] |
| --- | --- | --- | --- | --- | --- | --- | --- | --- | --- | --- | --- | --- | --- | --- | --- | --- | --- | --- | --- |
| CC1(C)S[C@@H]2[C@H](NC(=O)Cc3ccccc3)C(=O)N2[C@H]1C(=O)O [Benzathine Penicillin G, N, N dibenzyl ethylene diamine di benzyl penicillinate] | 500 (≈ 1500 µM) | 5.37 | 3.67 | 4 | 3.57 | 2.2 | 0.11 | substantially greater | – | – | – | – | – | – | – | – | – | – | – |
| CC1(C)S[C@@H]2[C@H](NC(=O)Cc3ccccc3)C(=O)N2[C@H]1C(=O)O [Procaine Penicillin G] | – | – | – | – | – | – | – | – | greater solubility | rapidly dissipated | higher | less than half | 7.68 | 1.56 | .21 u/ml. | less than 0.01 u/ml. | less than 0.01 u/ml. | less than 0.01 u/ml. | only a few days |
